Entries after “also recorded” stand apart in the source; their conditions may differ.
Key:
[1] = biological target: purified 20S proteasomes (Homo sapiens, UniProt P28072+P28074+Q99436); test: 20S proteolytic activity assay; type: biochemical; conditions: 1 μM; for chymotryptic activity of the 20S proteasome (Suc-LLVY-AMC): 30 min
Experimental: Actin was used as a loading control. […] In FIG. 9C-E, purified 20S proteasomes were treated for 30 min with or without compounds (1 μM) prior to the addition of the specific fluorogenic substrate for chymotryptic (9C), tryptic (9D) or PGPH (9E) hydrolytic proteasome capacities. […] DMSO was added to all samples to a final concentration of 0.1% (upper panel). The effect of DMSO is highlighted by including ubiquitin—AMC (0.5 μM) hydrolysis with 2 nM UCH37 lacking DMSO (orange, bottom panel). In FIG. 9H, purified 19S RP (500 nM) in buffer was treated with corresponding compounds 30 min at 37° C. and AMC cleavage was measured with a fluorometer for 20 min. Ubal was used as a positive control.
Release of free AMC by the enzyme reaction was determined by measuring its fluorescence at 380 nm (excitation) and 440 nm (emission). The graphs shown are representative of at least three independent determinations and each data point is the mean of ±SD of triplicate determinations.
20S proteasome cleaves the chymotryptic substrate and releases fluorescent AMC.

[2] = biological target: T1, RPN13 (Homo sapiens, UniProt Q16186); test: Biotin labeling assay; type: binding; conditions: cell lysate or purified RP, streptavidin-peroxidase blot
T1 construct: endogenous in cells; host or cells: HeLa, HS578T cell lysate
T1 sequence (Q16186 whole entry): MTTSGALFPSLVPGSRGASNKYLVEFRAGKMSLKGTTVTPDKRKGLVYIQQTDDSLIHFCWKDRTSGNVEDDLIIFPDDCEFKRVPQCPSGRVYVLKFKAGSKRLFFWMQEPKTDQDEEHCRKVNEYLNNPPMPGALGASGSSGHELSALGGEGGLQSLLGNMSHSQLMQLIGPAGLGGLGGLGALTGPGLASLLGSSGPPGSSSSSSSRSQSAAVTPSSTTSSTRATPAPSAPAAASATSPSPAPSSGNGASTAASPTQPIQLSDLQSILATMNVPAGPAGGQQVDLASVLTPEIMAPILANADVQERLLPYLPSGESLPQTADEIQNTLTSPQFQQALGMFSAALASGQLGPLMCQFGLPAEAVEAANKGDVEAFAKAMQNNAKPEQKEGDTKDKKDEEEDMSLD
Experimental: FIGS. 10 A-10E show a series of graphs and immunoblots showing the effects of several compounds on cell viability and proteasome activity. […] 10B and 10C show immunoblots of the proteasome activity of cell lines treated with the indicated compounds. […] IC50 values were determined in triplicate. In FIG. 10B, HeLa cells were treated for 12 hr and the cell lysate was subjected to immunoblot analysis with anti-Ubiquitin antibody. In FIG. 10C, SiHa cells were treated with the indicated compounds for 12 hr and the lysate subjected to Western blot analysis with anti-Ubiquitin antibody. HeLa cell lysate was treated with RA190B, subjected to SDS-PAGE, and probed with streptavidin-peroxidase following protein transfer to a polyvinylidene difluoride (PVDF) membrane. The streptavidin-peroxidase bound to biotinylated cellular proteins, but a striking new band at 42 kDa appeared in RA190B-treated samples (FIG. 2A). […] IC50 values were determined in triplicate.
To eliminate the possibility that another RP component was required for RA190B interaction, RPN13 or an irrelevant protein (L2) was overexpressed in bacteria. Cell lysate harvested from bacteria either with or without […] induction of ectopic protein expression was labeled with RA190B and probed by blotting with streptavidin-peroxidase. RA190B reacted strongly with a 42 kDa protein only in lysates of bacteria expressing RPN13 (FIG. 2D). […] 800 μL fractions were collected and alternate fractions (1,3,5,7,9,11,13,15,17) were analyzed for the presence of proteasomal proteins (RPN13, RPN2, RPN1 and UCH37) by Western blot analysis.
Human cells (5×10^6 HeLa or 293TT cells) were lysed using MPER (Pierce) lysis buffer (500 μL). RPN13 or HPV L2 transformed bacterial cells (500 μL of culture) were centrifuged to harvest the cells which were re-suspended in 500 μL BPER (Pierce). Cell lysates were centrifuged at 10,000 rpm briefly (2 min) at 4° C. to remove cell debris. Lysate supernatant (200 μL) was pre cleared with streptavidin dyna beads (20 μL) for 1 h at 4° C. to remove non-specific biotin binding and incubated with compounds (indicated concentrations or 20 μM) at 4° C. for 1 hr. An equal amount of each sample (20 μL of lysate) was mixed with an equal volume of Laemmli sample buffer (20 μL) (BioRad) and was boiled for 5 min. […] (24 V). Membrane was blocked with 5% BSA in PBST for 1 hr at room temperature and washed for 20 min (3×PBST). Then the membrane was probed with HRP-streptavidin (1:10,000 in PBST) for 1 hr at room temperature and washed for 30 min (3×PBST) and developed using HyGLO chemiluminescent detection reagent (Denville) for biotin recognition. For the purified enzyme assay, 19S purified proteasome (R&D Systems, Cat. No. E-366) (500 ng) in 19S buffer (20 mM HEPES, 20 mM NaCl, 1 mM DTT, 15% Glycerol) was incubated with compounds (20 μM) for 1 hr at room temperature and mixed with an equal volume of Laemmli sample buffer (20 μL) (BioRad) and was boiled for 5 min. Each sample was loaded onto gel and followed the western blot protocol mentioned above.
Purified 19S proteasome (500 ng) was incubated with corresponding compounds for 30 min and subjected to immunoblot and probed with HRP-conjugated streptavidin. In FIG. 23, the single band at 42 KDa indicates Rpn13 binding to 195. RA183B (20 μM) is used as positive control for Rpn13 binding. Competition experiments were done with RA183 (100 μM) and RA195 (100 μM) along with RA195B (20 μM).

[3] = test system: TNFα-induced NFκB activation in 293 cells; test: NFκB/FL reporter assay; type: cell-based; conditions: TNFα 10 ng/ml, 7 h
Experimental: 293 cells transiently transfected with either NFκB/FL (firefly luciferase reporter construct under control of an NFκB-driven promoter) or control CMV promoter-driven FL reporter construct were treated with compounds and TNFα (10 ng/ml) for 7 h. Upon the addition of luciferin, bioluminescence was measured in cell lysates using a luminometer. Results can be seen in FIG. 20.
293 cells transiently transfected with either NFκB/FL or control FL reporter genes were treated with compounds and TNFα (10 ng/ml) for 7 h. Upon the addition of luciferin, bioluminescence was measured in cell lysates using a luminometer.

[4] = test system: cancer cells; test: Antiproliferative activity against cancer cells (design rationale); type: cell-based
Text: We used Chloro and Nitro functional groups as substituent's on the aromatic ring due to their greater electron withdrawing effect at ortho (or) para (or) meta (or) both positions along with different amino acid linkages on bis-benzylidine piperidone moiety. Amino acids were chosen based in their physical characteristics like very hydrophobic (phenylalanine), strongly basic and hydrophilic (lysine), basic and hydrophilic (histidine) and amphiphilic (glycine). Commercially available Fmoc and Boc protected amino acids were used in the synthesis, and they were evaluated for their antiproliferatory activity against cancer cells.
Next we synthesized another set of compounds by converting free amine functionality to its Acetate (Ac), Acrolyl (Acr) and Benzoyl […] analogs as these units are part of many anticancer drugs because of their smaller size and feasibility to form inter molecular hydrogen bonds with proteins.
In the RA195 molecule two amino functionalities of lysine can provide more flexibility to make better analogs.

Row | SMILES | chymotryptic activity of the 20S proteasome (Suc-LLVY-AMC) [1] | CP chymotryptic, tryptic, and PGPH activities ([1]; 30 min pre-treatment) | labeling of / competition for RPN13 (42 kDa band) [2] | TNFα-induced NFκB activation [3] | antiproliferative potency among analogs [4]
1 | Cl.N[C@@H](Cc1ccccc1)C(=O)N1CC(=Cc2ccc(Cl)c(Cl)c2)C(=O)C(=Cc2ccc(Cl)c(Cl)c2)C1 [RA190, 3,5-bis(3,4-dichlorobenzylidene)-1-(S-2-amino-3-phenyl)-piperidin-4-one-HCl salt] | do not | does not inhibit | competitive; also recorded: covalently binds directly to RPN13 | Inhibits TNFα-Induced NFκB Activation | higher potency
2 | Cl.NCCCC[C@H](NC(=O)OCC1c2ccccc2-c2ccccc21)C(=O)N1C/C(=C\c2ccc(Cl)c(Cl)c2)C(=O)/C(=C/c2ccc(Cl)c(Cl)c2)C1 [RA195] | do not | – | binds covalently to RPN13 | inhibited TNFα-induced NFκB activation | higher potency

Reference: patent US10500198B2, “Bis-benzylidine piperidone proteasome inhibitor with anticancer activity” (The Johns Hopkins University, priority 2013, dated 2019)
